Laboratory results published in PMC6968633, “Synthesis, antibacterial and anticancer activity, and docking study of aminoguanidines containing an alkynyl moiety” (Journal of Enzyme Inhibition and Medicinal Chemistry, 2019).
Values after ≈ are worked out from the molar mass of the structure shown.

What was measured:
[1] = test system: Staphyiococcus aureus CMCC 25923; test: Antibacterial MIC, serial dilution; type: cell-based, Staphylococcus aureus; details: Staphylococcus aureus, CMCC25923; S. aureus CMCC 25923, 24 h, 37 °C; read-out: MIC
Description: (§1) Test bacteria were grown to mid-log phase in Mueller–Hinton broth (MHB) or Tryptone Soya Broth (TSB) and diluted 1000-fold in the same medium. Bacteria (10^5 CFU/mL) were inoculated into MHB or TSB and dispensed at 0.2 ml/well into a 96-well microtiter plate. As positive controls, gatifloxacin, moxifloxacin, norfloxacin, oxacillin, and penicillin were used. […] Bacterial growth was determined by measuring the absorption at 630 nm using a microplate reader. All experiments were carried out three times.
(§2) The evaluation of antibacterial activity of all compounds (3a–3j and 6a–6k) was performed by a serial dilution method to determine the MIC against a panel of pathogens comprising five Gram-positive strains (S. aureus (CMCC(B) 26003 and CMCC 25923), Streptococcus mutans BNCC 336931, Enterococcus faecalis CMCC 29212, and Bacillus subtilis CMCC 63501), four Gram-negative strains (E. coli (CMCC 25922 and CMCC 44568) and P. aeruginosa (CMCC 27853 and CMCC 10104)), as well as three methicillin-resistant clinical isolates (S. aureus ATCC 43300 and ATCC 33591, P. aeruginosa ATCC BAA-2111). The results are described in Tables 1 and 2. Gatifloxacin, moxifloxacin, norfloxacin, oxacillin, and penicillin were used as positive controls.

[2] = test system: Bacillus subtilis CMCC 63501; test: Antibacterial MIC, serial dilution; type: cell-based; details: Bacillus subtilis, CMCC63501; B. subtilis CMCC 63501, 24 h, 37 °C; read-out: MIC
Description: as §1, §2

[3] = test system: Enterococcus faecalis CMCC 29212; test: Antibacterial MIC, serial dilution; type: cell-based; details: Enterococcus faecalis, CMCC29212; E. faecalis CMCC 29212, 24 h, 37 °C; read-out: MIC
Description: as §1, §2

[4] = test system: Escherichia coli CMCC 25922; test: Antibacterial MIC, serial dilution; type: cell-based; details: Escherichia coli, CMCC25922; E. coli CMCC 25922, 24 h, 37 °C; read-out: MIC
Description: as §1, §2

[5] = test system: Escherichia coli CMCC 44568; test: Antibacterial MIC, serial dilution; type: cell-based; details: Escherichia coli, CMCC44568; E. coli CMCC 44568, 24 h, 37 °C; read-out: MIC
Description: as §1, §2

[6] = test system: Pseudomonas aeruginosa CMCC 10104; test: Antibacterial MIC, serial dilution; type: cell-based; details: Pseudomonas aeruginosa, CMCC10104; P. aeruginosa CMCC 10104, 24 h, 37 °C; read-out: MIC
Description: as §1, §2

[7] = test system: Pseudomonas aeruginosa CMCC 27853; test: Antibacterial MIC, serial dilution; type: cell-based; details: Pseudomonas aeruginosa, CMCC27853; P. aeruginosa CMCC 27853, 24 h, 37 °C; read-out: MIC
Description: as §1, §2

[8] = test system: Staphylococcus aureus CMCC(B)26003; test: Antibacterial MIC, serial dilution; type: cell-based; details: Staphylococcus aureus; S. aureus CMCC(B)26003, 24 h, 37 °C; read-out: MIC
Description: as §1, §2

[9] = test system: Streptococcus mutans BNCC 336931; test: Antibacterial MIC, serial dilution; type: cell-based; details: Streptococcus mutans, BNCC336931; S. mutans BNCC 336931, 24 h, 37 °C; read-out: MIC
Description: as §1, §2

[10] = test system: Pseudomonas aeruginosa ATCC BAA-2111; test: Antibacterial MIC, multidrug-resistant clinical isolate; type: cell-based; details: ATCCBAA2111, multidrug-resistant P. aeruginosa ATCC BAA-2111
Description: as §1, §2

[11] = test system: Staphylococcus aureus ATCC 33591; test: as above; type: cell-based; details: Staphylococcus aureus, ATCC33591; multidrug-resistant S. aureus ATCC 33591; read-out: MIC
Description: as §1, §2

[12] = test system: Staphylococcus aureus ATCC 43300; test: as above; type: cell-based; details: Staphylococcus aureus, ATCC43300; multidrug-resistant S. aureus ATCC 43300; read-out: MIC
Description: as §1, §2

[13] = test system: Staphylococcus aureus CMCC 25923; test: Bacterial resistance development, serial passaging at sub-MIC; type: cell-based; details: S. aureus, passaging at MIC/2, 20 passages
Description: (§3) To evaluate the propensity for developing bacterial resistance, one of the compounds with high antibacterial activity (3g) was used. The initial MIC values of 3g were determined against bacteria Staphylococcus aureus CMCC 25923 and Escherichia coli CMCC 44568, using norfloxacin and colistin, respectively, as antibiotic controls. Subsequently, serial passaging was initiated by transferring bacterial suspension grown at the sub-MIC of the compound/antibiotics (MIC/2) to a new plate and subjecting it to another assay to determine the (new) MIC. After 22 h incubation, cells grown at the sub-MIC of the test compound/antibiotics were once again transferred and the MIC determined. The process was repeated for 20 or 30 passages for S. aureus and E. coli, respectively. The MIC for 3g, norfloxacin and colistin was plotted as a function of time in days (number of passages) to determine the propensity of bacterial resistance development.
(§4) Bacterial resistance against most antibiotics presents a major problem of current times. Therefore, it is crucial to evaluate the potential emergence of bacterial resistance against these biocides. […] Norfloxacin, an antibiotic generally used to treat the Gram-positive infections, was used as a positive control for S. aureus, whereas colistin, a lipopeptide antibiotic active against Gram-negative bacteria, was used as a positive control for E. coli. These antibacterial agents were repeatedly challenged against bacteria at their sub-MIC values to allow bacteria to develop resistance. Resistance is usually defined as a > 4-fold increase in the original MIC[32].

[14] = test system: Methicillin-resistant S. aureus ATCC 33591; test: Bactericidal time-kill assay; type: cell-based, Staphylococcus aureus; details: MRSA; for nature of antibacterial effect in time-kill assay: 1 × MIC and 2 × MIC
Description: Methicillin-resistant S. aureus ATCC 33591 grown in MHB was used to determine time-kill kinetics. Bacterial suspensions (10^5 CFU/mL) containing test compounds (norflocaxin, compound 3g) at final concentrations of 1 × MIC and 2 × MIC were incubated at 37 °C with shaking. Aliquots (10 μL) were removed from the cultures after 0, 0.5, 1, 2, 3, 4, 6, 8 and 12 h, serially diluted 1000-fold in nutrient solution, and plated onto sterile Mueller-Hinton agar medium. Plates were then incubated for 24 h at 37 °C, the number of CFU was counted, and the total bacterial log10 CFU/mL was determined.

A549 = test: Cytotoxicity, CCK-8 assay; type: cell-based; details: Homo sapiens, A549 lung cancer cells, 48 h
Description: (§5) A lung cancer cell line (A549), gastric cancer cell line (SGC7901) and human hepatocytes (L02) were used to test the anticancer activity and cytotoxicity of the new compounds. 5-Fluorouracil (5-FU) was used as the positive control against cancer cell lines. The A549, SGC7901 and L02 cells were grown in Dulbecco’s modified Eagle’s medium (DMEM) supplemented with 10% foetal bovine serum (FBS) and antibiotics (100 U/mL penicillin-streptomycin). Cells at 80–90% confluence were split by trypsin (0.25% in PBS; pH 7.4), and the medium was changed at 24 h intervals. The cells were cultured at 37 °C in a 5% CO2 incubator. The cells were passaged three times, then approximately 1 × 10^4 cells were seeded into each well of a 96-well plate and allowed to incubate to allow attachment of the cells to the surface. After 24 h, the medium was replaced with DMEM supplemented with 10% FBS containing various concentrations (0.1, 0.3, 1, 3, 10, and 30 μg/mL) of test compounds. Each concentration was tested in triplicate. After 48 h treatment, 20 µL of CCK-8 solution was added to each well and the optical density measured at 450 nm after 3 h using a microplate reader. The IC50 values were defined as the concentrations inhibiting 50% of cell growth.

SGC7901 = test: Cytotoxicity, CCK-8 assay; type: cell-based; details: Homo sapiens, SGC-7901, SGC7901 gastric cancer cells, 48 h
Description: as §5

L02 = test: Cytotoxicity, CCK-8 assay, normal cell line; type: cell-based; details: L02 normal human hepatocytes, 48 h
Description: as §5

[15] = test system: Escherichia coli CMCC 44568; test: Bacterial resistance development, serial passaging at sub-MIC; type: cell-based; details: E. coli, passaging at MIC/2
Description: as §3, §4

Compound	MIC [1]	MIC [2]	MIC [3]	MIC [4]	MIC [5]	MIC [6]	MIC [7]	MIC [8]	MIC [9]	MIC [10]	MIC [11]	MIC [12]	increase in MIC on serial passaging [13]	nature of antibacterial effect in time-kill assay [14]	also measured
CCn1cc(C(=O)O)c(=O)c2cc(F)c(N3CCNCC3)cc21 [Norfloxacin, reference compound]	0.125 mg/L (≈ 0.391 µM)	2 mg/L (≈ 6.26 µM)	1 mg/L (≈ 3.13 µM)	0.125 mg/L (≈ 0.391 µM)	0.125 mg/L (≈ 0.391 µM)	4 mg/L (≈ 12.5 µM)	2 mg/L (≈ 6.26 µM)	0.125 mg/L (≈ 0.391 µM)	16 mg/L (≈ 50.1 µM)	1 mg/L (≈ 3.13 µM)	0.25 mg/L (≈ 0.783 µM)	0.5 mg/L (≈ 1.57 µM)	approximately 32 fold	bacteriostatic, not bactericidal	–
N=C(N)NN=Cc1ccc(C#Cc2ccc(Cl)cc2)cc1 [Compound 3g, 2-(4-((4-Chlorophenyl)ethynyl)benzylidene)hydrazine-1-carboximidamide]	0.5 mg/L (≈ 1.68 µM)	0.25 mg/L (≈ 0.842 µM)	0.5 mg/L (≈ 1.68 µM)	2 mg/L (≈ 6.74 µM)	2 mg/L (≈ 6.74 µM)	1 mg/L (≈ 3.37 µM)	> 128 mg/L	0.5 mg/L (≈ 1.68 µM)	0.5 mg/L (≈ 1.68 µM)	4 mg/L (≈ 13.5 µM)	0.5 mg/L (≈ 1.68 µM)	1 mg/L (≈ 3.37 µM)	little change	rapidly bactericidal	IC50 (A549): 4.42 mg/L (≈ 14.9 µM); IC50 (SGC7901): 1.01 mg/L (≈ 3.4 µM); IC50 (L02): 20.9 mg/L (≈ 70.3 µM); increase in MIC on serial passaging [15]: little change; persistence of bactericidal activity ([14]; 2 × MIC): 12 h; reduction of bacterial count ([14]; 2 × MIC, after 2 h, start 5.5 log10 CFU/mL): > 5 log10 CFU/mL; melting point: 232 to 234 °C
